Source: patent US20240366596A1, “TREATMENT OF HFPEF IN POST-MENOPAUSAL WOMEN WITH AN SGC STIMULATOR” (Cyclerion Therapeutics, Inc., priority 2021, published 2024)
Like-named read-outs stand apart in the source and are kept apart here.

Legend:
[1] = system: patients with chronic HF with HFpEF; conditions: top-line results; cited from earlier work
obese ZSF1 rats = assay: ZSF1 rat model of diabetic nephropathy with metabolic syndrome; assay type: in vivo
Text: All data are plotted as mean±SEM. #p<0.05. ##p<0.01 vs obese control.
Aged ZSF1 rats have also been reported to develop HF consistent with HFpEF. In the ZSF1 model of diabetic nephropathy and metabolic syndrome, olinciguat was renoprotective and associated with lower circulating glucose, cholesterol, and triglycerides, all of which are relevant for this the population of post-menopausal women with HFpEF that tend to show a metabolic phenotype. Also in this model, baseline plasma NT-proBNP levels were similar in all obese ZSF1 groups [obese, group treated with enalapril (ENP), ENP+OLI10 (enalapril+oli at 10 mg/kg), and ENP+OLI30 (enalapril+oli at 30 mg/kg)]. NT-proBNP, analyzed as change from baseline to the end of treatment, increased in the obese control and ENP groups, and decreased in ENP+OLI10 and ENP+OLI30 groups (FIG. 5).

[2] = system: normotensive and hypertensive rats; assay: Blood pressure in normotensive and hypertensive rats; assay type: in vivo, rat
[3] = system: Dahl salt-sensitive rat model; assay: Dahl salt-sensitive (DSS) hypertension rat model of HFpEF; assay type: in vivo; conditions: olinciguat 10 mg/kg, FIG. 4
Description: All data are plotted as mean±SEM. **p<0.01. ***p<0.001 vs high-salt (HS) control.
The cardioprotective effects of olinciguat were tested in two animal models of HF: the rat post-myocardial infarction (MI) model of heart failure with reduced ejection fraction and in the Dahl salt-sensitive (DSS) hypertension model, which develops HFpEF.

participants with HFpEF [4] = assay: CAPACITY HFpEF Phase 2 trial of praliciguat: cardiometabolic endpoints (blood pressure, HbA1c); assay type: in vivo, human; conditions: Week 12
Text: (§1) A Multicenter, Randomized, Double-Blind, Placebo-Controlled, Phase 2 Study Evaluating the Safety and Efficacy of Different Doses of Praliciguat (IW-1973, Compound I-1) Over 12 Weeks in Patients with Heart Failure with Preserved Ejection Fraction (CAPACITY HFpEF).
(§2) The primary safety endpoints were based on the incidence of treatment-emergent adverse events (TEAEs) and of TEAEs that were considered study drug-related by the investigator. TEAEs were defined as AEs that started or worsened in severity after administration of study drug. Medical history, prior and concomitant medications and surgeries/procedures, and adverse events (AEs) were collected throughout the study. Physical examination, vital sign measurements including orthostatic blood pressures, clinical laboratory tests, pregnancy tests, and ECGs were performed. Blood was also collected to determine pharmacokinetic (PK) parameters and plasma concentrations of praliciguat.
Other exploratory endpoints included assessment of echocardiographic parameters (as determined by an independent, central echocardiography core laboratory that was blinded to treatment assignment); changes from baseline to Week 12 and Follow-up visits in New York Heart Association (NYHA) functional classification (I, II, III, or IV); cardiac events (hospitalizations of CV etiology and all deaths were analyzed by the central, independent, blinded cardiac events adjudicators who determined if an event was due to heart failure or was of other CV etiology); changes from baseline to Week 12 in blood and urine biomarker levels that are relevant to HF pathophysiology; and changes from baseline to Week 12 in NT-proBNP values, urine albumin creatinine ratios (UACRs), estimated glomerular filtration rates (eGFRs), and HOMA-IR changes. Changes from baseline responses in participants' self-administered health-related quality-of-life (QOL) questionnaires were also tabulated and analyzed, including the Kansas City Cardiomyopathy Questionnaire (KCCQ), the Sheehan Disability Scale (SDS), the EuroQol (EQ) 5D-5L, and the Quick Inventory of Depressive Symptomatology Self-Report 16-item version (QIDS-SR-16).
Whereas the change from baseline relative to placebo in the general population was a reduction of 3.5 mmHg in the systolic blood pressure, this change was 7.9 mmHg reduction for the subpopulation of elderly women. Similarly, whereas the change from baseline relative to placebo in the general population was a reduction of 2.1 mmHg in the diastolic blood pressure, this change was 8.2 mmHg reduction for the subpopulation of elderly women. And also similarly, the change from baseline relative to placebo in the general population was a reduction of 0.18% points in the measurement of HbA1C, this change was 0.41% reduction from baseline relative to placebo for the subpopulation of elderly women

participants with HFpEF [5] = assay: CAPACITY HFpEF Phase 2 trial of praliciguat: safety (treatment-emergent adverse events); assay type: in vivo, human
Text: as §1, §2
(§3) This Phase 2, multicenter, randomized, double-blind, placebo-controlled, parallel-group study evaluated the safety and efficacy of praliciguat compared with placebo. The study randomized 196 adults with established heart failure (HF) and limited exercise capacity with an ejection fraction (EF) of at least 40% and who had at least 2 of 4 risk factors for HFpEF (diabetes/prediabetes, hypertension, obesity, and advanced age) (see Inclusion and Exclusion Criteria below).

participants with HFpEF [6] = assay: CAPACITY HFpEF Phase 2 trial of praliciguat: 6-minute walk test (6MWT); assay type: in vivo, human
Text: as §1
(§4) The pre-specified major secondary endpoints were the change from baseline in 6-minute walk test (6MWT) distance at Week 12, the change from baseline in ventilatory efficiency as defined by VE/VCO2 slope (minute ventilation/volume of carbon dioxide production) as obtained via CPET at Week 12, and the number of CPET responders defined as participants who improved by at least 1.5 mL O2/kg/min in peak VO2 from baseline to Week 12. In the CPET responder analysis, participants who were hospitalized or who died due to heart failure during the study Treatment Period or were missing Week 12 post-dose CPET values were considered to be non-responders.
as §3
Screening Period: The Screening Period started with the signing of the ICF at the Screening Visit and lasted up to 45 days. At the Screening Visit, potential participants underwent screening procedures to determine their initial study eligibility. At the Baseline Visit, participants returned to the clinic for additional screening procedures to confirm their eligibility, including assessment of their CPET values, vital sign measurements, and blood and urine sample collections, and to receive urine sample collection supplies to take home. The Screening Visit could be combined with the Baseline Visit if the participant was fasted for blood and urine collections. CPET and 6MWT were to occur within 14 days before Randomization. The end of the Screening Period coincided with the beginning of the Treatment Period.

participants with HFpEF [7] = assay: CAPACITY HFpEF Phase 2 trial of praliciguat: cardiopulmonary exercise testing (CPET); assay type: in vivo, human
Text: as §1
The primary objectives of this clinical study (ClinicalTrials.gov Identifier NCT03254485) were to assess the safety of oral praliciguat when administered for approximately 12 weeks to participants with HFpEF, and to evaluate the effect of oral praliciguat on peak exercise capacity (as measured by oxygen consumption [VO2]) when administered for approximately 12 weeks to participants with HFpEF, both in all participants and in participants without permanent or persistent atrial fibrillation.
The primary efficacy endpoint was the change from baseline in peak VO2 as measured by cardiopulmonary exercise testing (CPET) at Week 12 of the Treatment period. CPET was performed at baseline, at Week 8 and again at Week 12 using a highly standardized study-specific protocol. To participate in this study, each study site had to submit 2 studies to the CPET Core Laboratory at Massachusetts General Hospital core laboratory for review, and studies had to be determined to be of adequate quality before the site was deemed CPET qualified. For the 3 CPETs required by the study protocol, each study participant was to use the same form of exercise (treadmill or bicycle) and undergo the CPETs at the same time of day (+2 hours), ≥1 hour after study medication dosing. As part of the procedure, participants exercised to peak capacity beginning with unloaded exercise and continuing with a symptom-limited incremental ramp to peak VO2 with requisite respiratory exchange ratio (RER)≥1. For the baseline CPET, a participant's RER had to be ≥1.0 in order to indicate an adequate test (i.e., adequate effort on the part of the study participant, to try to mitigate stopping for non-cardiopulmonary reasons [e.g., effort-related or musculoskeletal]). Additional CPET-related study eligibility criteria included a peak VO2 of ≤80% of the predicted or age- and sex-adjusted normal level (FLETCHER G F, et al. Exercise standards. A statement for healthcare professionals from the American Heart Association. Writing Group. Circulation. 1995;91 [2]: 580-615), which served as an objective indicator of exercise intolerance characteristic of HF. For the Week 8 and End of Treatment CPETs, participants were to exercise to maximum effort, ideally to RER≥1.0. Analysis of CPET measurements for eligibility and for efficacy analyses were conducted by the independent central CPET Core Lab that was blinded to treatment allocation.
as §4, §3
Dosing on Days 1 to 14 (±3) was 20 mg BID (twice daily). Dosing on Day 15 (±3) onward was 40 mg QD (once daily). […]

[8] = system: subjects with symptomatic HF and an LVEF≥45%; conditions: women, spironolactone vs placebo, subjects from the Americas; cited from earlier work
[9] = system: participants with chronic HF and an ejection fraction (EF) of ≥45% (i.e., HFpEF); conditions: cited from earlier work
[10] = system: participants with chronic HF, an LVEF of at least 45% (i.e., HFpEF); conditions: cited from earlier work
[11] = system: women compared with men with heart failure and preserved ejection fraction; conditions: cited from earlier work
[12] = 40 mg praliciguat vs placebo, Primary Analytic Population, Week 12
[13] = women of age > 70, week 12, 40 mg
[14] = women of age > 70, week 12, 40 mg vs placebo
[15] = elderly women (older than 70), 12 weeks of treatment, CPET responder analysis
[16] = pooled three highest vericiguat dose arms, 12 weeks, vs placebo

Compound: OC[C@H]1O[C@@H](c2ccc(Cl)c(Cc3ccc(O[C@H]4CCOC4)cc3)c2)[C@H](O)[C@@H](O)[C@@H]1O [empagliflozin]
- risk for the composite of cardiovascular death or hospitalization for HF compared with placebo [1]: significantly reduced risk

Compound: CCOC(=O)[C@H](CCc1ccccc1)N[C@@H](C)C(=O)N1CCC[C@H]1C(=O)O [enalapril, reference compound]
- NT-proBNP, change from baseline to the end of treatment (obese ZSF1 rats; enalapril alone (ENP group), plasma, FIG. 5): increased

Compound: NC(=O)[C@](O)(CNc1nc(-c2cc(-c3ccon3)n(Cc3ccccc3F)n2)ncc1F)C(F)(F)F [olinciguat]
- circulating cholesterol (obese ZSF1 rats; rat, in vivo): lower
- circulating glucose (obese ZSF1 rats; rat, in vivo): lower
- circulating triglycerides (obese ZSF1 rats; rat, in vivo): lower
- renoprotection (obese ZSF1 rats; rat, in vivo): renoprotective
- blood pressure [2]: reduced blood pressure
- cardioprotection (cardiac weights) [3]: cardioprotective
- lung congestion (lung weights) [3]: reduced lung congestion
- NT-proBNP levels ([3]; plasma): reduced NT-proBNP levels

Compound: OC(CNc1nc(-c2cc(-c3ccon3)n(Cc3ccccc3F)n2)ncc1F)(C(F)(F)F)C(F)(F)F [praliciguat]
- reduction in HbA1C, change from baseline relative to placebo (participants with HFpEF [4]; general population): 0.18 % points
- reduction in diastolic blood pressure, change from baseline relative to placebo (participants with HFpEF [4]; general population): 2.1 mmHg
- reduction in systolic blood pressure, change from baseline relative to placebo (participants with HFpEF [4]; general population): 3.5 mmHg
- reduction in HbA1C, change from baseline relative to placebo (participants with HFpEF [4]; subpopulation of elderly women): 0.41%
- reduction in diastolic blood pressure, change from baseline relative to placebo (participants with HFpEF [4]; subpopulation of elderly women): 8.2 mmHg
- reduction in systolic blood pressure, change from baseline relative to placebo (participants with HFpEF [4]; subpopulation of elderly women): 7.9 mmHg
- deaths (participants with HFpEF [5]; 40 mg praliciguat, fatal events considered not related to study drug): One death
- participants with at least one TEAE of dizziness (participants with HFpEF [5]; human, in vivo, 12 weeks): 9.9%
- participants with at least one TEAE of headache (participants with HFpEF [5]; human, in vivo, 12 weeks): 11%
- participants with at least one TEAE of hypotension (participants with HFpEF [5]; human, in vivo, 12 weeks): 8.8%
- participants with at least one serious TEAE (participants with HFpEF [5]; human, in vivo, 12 weeks): 10%
- placebo-adjusted LSM difference in change from baseline in 6MWT distance (participants with HFpEF [6]; [12]): −16.7 m
- adjusted change in 6-minute walk test (6MWT) distance (participants with HFpEF [6]; 40 mg praliciguat, Primary Analytic Population, Week 12): 41.4 m
- improvement in 6MW vs placebo (participants with HFpEF [6]; subpopulation of elderly women): 23 meters
- Six Minute Walk Test LS Mean (participants with HFpEF [6]; [13]): 73.6369
- Six Minute Walk Test LS Mean Diff (participants with HFpEF [6]; [14]): 22.7533
- placebo-adjusted LSM difference in change from baseline in peak VO2 (participants with HFpEF [7]; [12]): -0.30 mL/min/kg
- placebo-adjusted LSM difference in change in ventilation/carbon dioxide production slope (participants with HFpEF [7]; [12]): −0.3
- adjusted change from baseline in peak VO2 at Week 12 (participants with HFpEF [7]; 40 mg praliciguat, Primary Analytic Population (n=65), Week 12): -0.26 mL/min/kg
- patients with a higher than 1 mL/O2/kg/min improvement in peak VO2 (participants with HFpEF [7]; [15]): About 50%
- patients with a higher than 1.5 mL/O2/kg/min improvement in peak VO2 (participants with HFpEF [7]; [15]): 35-40%
- placebo-adjusted LSM difference in change from baseline in peak VO2 (participants with HFpEF [7]; post hoc, elderly women (70 years or older), 40 mg praliciguat (n=16) vs placebo (n=18), Week 8): 0.75 mL/min/kg
- placebo-adjusted LSM difference in change from baseline in peak VO2 (participants with HFpEF [7]; post hoc, elderly women (70 years or older), 40 mg praliciguat (n=16) vs placebo (n=18), Week 12): 1.58 mL/min/kg
- improvement in peak work load (participants with HFpEF [7]; sub-population of elderly women, week 12): about 6.5%
- worsening in peak work load (participants with HFpEF [7]; whole population): 1%
- Peak Workload LS Mean (participants with HFpEF [7]; [13]): 12.6395 Watts
- Peak Workload LS Mean Diff (participants with HFpEF [7]; [14]): 6.5195 Watts

Compound: CC(=O)S[C@@H]1CC2=CC(=O)CC[C@]2(C)[C@H]2CC[C@@]3(C)[C@@H](CC[C@@]34CCC(=O)O4)[C@H]12 [spironolactone]
- all-cause mortality HR [8]: 0.66

Compound: COC(=O)Nc1c(N)nc(-c2nn(Cc3ccccc3F)c3ncc(F)cc23)nc1N [vericiguat]
- proportion of participants achieving clinically meaningful improvements in KCCQ-clinical summary score ([9]; 10 mg vericiguat compared with placebo arm): larger proportion
- change in left atrial volume [9, 16]: NOT different from placebo
- change in log NT-proBNP [9, 16]: NOT different from placebo
- mean change in the physical limitation score of the KCCQ ([10]; 10-mg group): 6.5 points
- mean change in the physical limitation score of the KCCQ ([10]; 15-mg group): 5.5 points

Compound: sacubitril-valsartan
- rate ratio for sacubitril-valsartan versus valsartan, primary outcome (HF hospitalizations and cardiovascular death) ([11]; men): 1.03
- rate ratio for sacubitril-valsartan versus valsartan, primary outcome (HF hospitalizations and cardiovascular death) ([11]; women): 0.73
